In assay [1] the target is T1, Histone-lysine N-methyltransferase EZH1 (Homo sapiens, UniProt Q92800). The assay is described as follows: Affinity Biochemical interaction: (inhibition of EZH1 for both SAM and peptide substrates using a Flashplate assay to measure the transfer of a tritiated methyl group from SAM to the peptide) EUB0002228a EZH1. In kind it is functional. The arrangement: mode of action Inhibitor, recommended concentration 1 uM.

Assay [2] deals with T1, Histone-lysine N-methyltransferase EZH1. The assay is described as follows: Affinity Biochemical interaction: (ELISA-based protein substrate methylation assay) EUB0002228a EZH1. Type of assay: functional. Further details: mode of action Inhibitor, recommended concentration 1 uM. Background: ELISA stands for enzyme-linked immunosorbent assay.
Assay [3] deals with Monocarboxylate transporter 1 (Homo sapiens, UniProt P53985). The assay is described as follows: Affinity Biochemical interaction: (Displacement of radiolabelled [3H]-BAY-8002) EUB0001677b SLC16A1. Further details: mode of action Inhibitor, recommended concentration 1 uM.
Sequence of Monocarboxylate transporter 1 (P53985 whole entry): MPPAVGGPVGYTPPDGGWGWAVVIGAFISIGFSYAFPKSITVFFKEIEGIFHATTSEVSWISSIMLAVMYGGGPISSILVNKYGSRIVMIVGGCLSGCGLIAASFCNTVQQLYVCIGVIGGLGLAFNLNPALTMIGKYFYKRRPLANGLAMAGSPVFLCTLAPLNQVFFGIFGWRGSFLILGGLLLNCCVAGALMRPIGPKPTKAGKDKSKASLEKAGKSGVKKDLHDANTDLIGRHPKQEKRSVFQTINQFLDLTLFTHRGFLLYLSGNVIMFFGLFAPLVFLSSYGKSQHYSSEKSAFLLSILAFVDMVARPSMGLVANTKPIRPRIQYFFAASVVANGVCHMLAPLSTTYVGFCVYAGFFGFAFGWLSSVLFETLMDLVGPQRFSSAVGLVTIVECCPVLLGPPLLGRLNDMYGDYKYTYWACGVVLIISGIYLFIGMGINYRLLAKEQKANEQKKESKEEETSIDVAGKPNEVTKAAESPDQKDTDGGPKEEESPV
In assay [4] the target is T2, Caspase-8 (Homo sapiens, UniProt Q14790). Description: Affinity Biochemical interaction: (enzymatic assay (fluorogenic substrate cleavage)) EUB0002177aAD CASP8. Further details: mode of action Inhibitor, recommended concentration 1 uM. In kind it is functional.
T2 sequence (Q14790 217-374 limits assumed): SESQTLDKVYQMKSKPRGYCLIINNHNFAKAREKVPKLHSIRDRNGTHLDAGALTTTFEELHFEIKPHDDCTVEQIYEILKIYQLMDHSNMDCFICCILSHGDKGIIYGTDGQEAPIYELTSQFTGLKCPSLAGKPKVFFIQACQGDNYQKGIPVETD
T2 sequence (Q14790 385-479 limits assumed): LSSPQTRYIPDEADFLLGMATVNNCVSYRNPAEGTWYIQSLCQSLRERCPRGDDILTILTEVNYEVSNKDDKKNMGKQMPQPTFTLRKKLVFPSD
The target of assay [5] is Caspase-6 (Homo sapiens, UniProt P55212). Description: Affinity Biochemical interaction: (enzymatic assay (fluorogenic substrate cleavage)) EUB0002190aAD CASP6. In kind it is functional. Further details: mode of action Inhibitor, recommended concentration 1 uM.
Sequence of Caspase-6 (P55212 24-179 limits assumed): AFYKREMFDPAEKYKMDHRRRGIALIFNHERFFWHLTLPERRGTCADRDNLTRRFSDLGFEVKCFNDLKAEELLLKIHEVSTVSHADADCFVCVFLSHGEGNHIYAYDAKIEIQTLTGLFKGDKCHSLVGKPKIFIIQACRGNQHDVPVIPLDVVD
Sequence of Caspase-6 (P55212 194-293 limits assumed): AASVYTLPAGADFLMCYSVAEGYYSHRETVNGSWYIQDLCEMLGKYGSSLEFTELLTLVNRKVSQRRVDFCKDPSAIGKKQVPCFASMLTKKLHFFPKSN
Assay [6] deals with Caspase-9 (Homo sapiens, UniProt P55211). Description: Affinity Biochemical interaction: (enzymatic assay (fluorogenic substrate cleavage)) EUB0002190aAD CASP9. Further details: mode of action Inhibitor, recommended concentration 1 uM. Type of assay: functional.
Sequence of Caspase-9 (P55211 1-315 limits assumed): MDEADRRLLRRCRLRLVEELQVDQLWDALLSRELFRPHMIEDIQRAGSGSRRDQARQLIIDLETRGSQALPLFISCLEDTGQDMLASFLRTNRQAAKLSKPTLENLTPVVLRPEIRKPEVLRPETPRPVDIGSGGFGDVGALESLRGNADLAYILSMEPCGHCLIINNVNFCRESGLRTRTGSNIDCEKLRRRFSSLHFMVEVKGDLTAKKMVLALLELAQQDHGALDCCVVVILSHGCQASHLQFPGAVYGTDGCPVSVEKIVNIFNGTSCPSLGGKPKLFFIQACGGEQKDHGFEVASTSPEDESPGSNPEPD
Sequence of Caspase-9 (P55211 331-416 limits assumed): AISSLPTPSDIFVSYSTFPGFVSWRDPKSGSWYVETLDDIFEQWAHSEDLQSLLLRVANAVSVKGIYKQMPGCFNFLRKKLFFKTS
Assay [7] has as its target T3, Caspase-3 (Homo sapiens, UniProt P42574).
T3 sequence (P42574 whole entry): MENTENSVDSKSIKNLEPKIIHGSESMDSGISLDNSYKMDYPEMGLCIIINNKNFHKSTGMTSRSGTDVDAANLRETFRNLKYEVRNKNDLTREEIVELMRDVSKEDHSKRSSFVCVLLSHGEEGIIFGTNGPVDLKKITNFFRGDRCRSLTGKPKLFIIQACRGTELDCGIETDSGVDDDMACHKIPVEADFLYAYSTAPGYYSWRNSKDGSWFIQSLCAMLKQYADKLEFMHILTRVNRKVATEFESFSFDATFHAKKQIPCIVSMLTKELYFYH
The assay is described as follows: Affinity Biochemical interaction: (enzymatic assay (fluorogenic substrate cleavage)) EUB0002190aAD CASP3. Further details: mode of action Inhibitor, recommended concentration 1 uM. In kind it is functional.

Assay [8] addresses T4, Caspase-1 (Homo sapiens, UniProt P29466). Description: Affinity Biochemical interaction: (enzymatic assay (fluorogenic substrate cleavage)) EUB0002190aAD CASP1. Type of assay: functional. Further details: mode of action Inhibitor, recommended concentration 1 uM.
Assay [9] concerns the target T2, Caspase-8. Description: Affinity Biochemical interaction: (enzymatic assay (fluorogenic substrate cleavage)) EUB0002190aAD CASP8. In kind it is functional. Further details: mode of action Inhibitor, recommended concentration 1 uM.
Assay [10] addresses Histone-arginine methyltransferase CARM1 (Homo sapiens, UniProt Q86X55). Description: Affinity Biochemical interaction: (enzymatic assay (inhibition of methyl transfer from radiolabelled substrate [3H]SAM to peptide)) EUB0002245aCl CARM1. In kind it is functional. Further details: mode of action Inhibitor, recommended concentration 1 uM.
The target of assay [11] is Protein arginine N-methyltransferase 6 (Homo sapiens, UniProt Q96LA8). Description: Affinity Biochemical interaction: (enzymatic assay (inhibition of methyl transfer from radiolabelled substrate [3H]SAM to peptide)) EUB0002245aCl PRMT6. Further details: mode of action Inhibitor, recommended concentration 1 uM. In kind it is functional.
Sequence of Protein arginine N-methyltransferase 6 (Q96LA8 whole entry): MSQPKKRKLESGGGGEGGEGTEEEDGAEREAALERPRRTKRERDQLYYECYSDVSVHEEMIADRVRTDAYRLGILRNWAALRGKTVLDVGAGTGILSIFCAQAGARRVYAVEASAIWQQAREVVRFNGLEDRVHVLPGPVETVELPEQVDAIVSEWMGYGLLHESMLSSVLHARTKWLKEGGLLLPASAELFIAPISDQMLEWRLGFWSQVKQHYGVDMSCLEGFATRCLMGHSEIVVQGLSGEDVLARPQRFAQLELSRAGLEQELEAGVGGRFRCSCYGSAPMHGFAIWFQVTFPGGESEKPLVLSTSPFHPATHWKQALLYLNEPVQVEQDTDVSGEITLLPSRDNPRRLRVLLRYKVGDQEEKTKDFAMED
Assay [12] concerns the target Protein arginine N-methyltransferase 8 (Homo sapiens, UniProt Q9NR22). The assay is described as follows: Affinity Biochemical interaction: (enzymatic assay (inhibition of methyl transfer from radiolabelled substrate [3H]SAM to peptide)) EUB0002245aCl PRMT8. Further details: mode of action Inhibitor, recommended concentration 1 uM. In kind it is functional.
The target of assay [13] is Caspase-2 (Homo sapiens, UniProt P42575). The assay is described as follows: Affinity Biochemical interaction: (enzymatic assay (fluorogenic substrate cleavage)) EUB0002196a CASP2. The arrangement: mode of action Inhibitor, recommended concentration 1 uM. Type of assay: functional.
Assay [14] has as its target T5, Caspase-7 (Homo sapiens, UniProt P55210). Description: Affinity Biochemical interaction: (enzymatic assay (fluorogenic substrate cleavage)) EUB0002196a CASP7. The arrangement: mode of action Inhibitor, recommended concentration 1 uM. In kind it is functional.
The target of assay [15] is T3, Caspase-3. Description: Affinity Biochemical interaction: (enzymatic assay (fluorogenic substrate cleavage)) EUB0002196a CASP3. In kind it is functional. Further details: mode of action Inhibitor, recommended concentration 1 uM.
Assay [16] deals with T2, Caspase-8. Description: Affinity Biochemical interaction: (enzymatic assay (fluorogenic substrate cleavage)) EUB0002198aAD CASP8. Type of assay: functional. Further details: mode of action Inhibitor, recommended concentration 1 uM.
Assay [17] deals with T4, Caspase-1. Description: Affinity Biochemical interaction: (enzymatic assay (fluorogenic substrate cleavage)) EUB0002198aAD CASP1. Further details: mode of action Inhibitor, recommended concentration 1 uM. Type of assay: functional.
The target of assay [18] is T6, Chromobox protein homolog 7 (Homo sapiens, UniProt O95931).
T6 sequence (O95931 whole entry): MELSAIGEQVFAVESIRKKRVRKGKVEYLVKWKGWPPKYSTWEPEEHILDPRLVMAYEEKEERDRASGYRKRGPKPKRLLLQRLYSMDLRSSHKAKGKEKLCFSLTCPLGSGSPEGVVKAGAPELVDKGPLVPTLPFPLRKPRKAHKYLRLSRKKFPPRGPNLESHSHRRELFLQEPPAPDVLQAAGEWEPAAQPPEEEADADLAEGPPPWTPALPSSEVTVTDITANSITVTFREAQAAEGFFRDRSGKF
The assay is described as follows: Affinity Biochemical interaction: (ITC) EUB0001090a CBX7. The arrangement: mode of action Inhibitor, recommended concentration 1 uM.

Assay [19] addresses T6, Chromobox protein homolog 7. The assay is described as follows: Affinity Biochemical interaction: (AlphaScreen) EUB0001090a CBX7. In kind it is functional. The arrangement: mode of action Inhibitor, recommended concentration 1 uM.
Assay [20] shares this target. The assay is described as follows: Affinity Biochemical interaction: (SPR) EUB0001090a CBX7. The arrangement: mode of action Inhibitor, recommended concentration 1 uM.
In assay [21] the target is Caspase-4 (Homo sapiens, UniProt P49662). Description: Affinity Biochemical interaction: (enzymatic assay (fluorogenic substrate cleavage)) EUB0002201a CASP4. The arrangement: mode of action Inhibitor, recommended concentration 1 uM. Type of assay: functional.
Sequence of Caspase-4 (P49662 81-270 limits assumed): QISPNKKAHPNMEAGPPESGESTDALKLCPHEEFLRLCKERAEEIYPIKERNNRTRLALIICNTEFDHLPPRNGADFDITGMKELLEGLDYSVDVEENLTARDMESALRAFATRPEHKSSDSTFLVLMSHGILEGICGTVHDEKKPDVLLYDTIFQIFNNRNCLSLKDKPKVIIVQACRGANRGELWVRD
Sequence of Caspase-4 (P49662 290-377 limits assumed): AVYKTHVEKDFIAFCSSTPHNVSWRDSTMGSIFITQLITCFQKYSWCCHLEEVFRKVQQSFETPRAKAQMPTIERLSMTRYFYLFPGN
Assay [22] addresses Diacylglycerol lipase-beta (Homo sapiens) (UniProt Q8NCG7). Description: Affinity Biochemical interaction: (Gel-based competitive ABPP) EUB0002547a DAGLB. Type of assay: functional. Further details: recommended concentration 1 uM. As to conditions: Affinity Biochemical Source Knowledge https://pubs.acs.org/doi/epdf/10.1021/jm400898x.
Assay [23] concerns the target Caspase-10 (Homo sapiens, UniProt Q92851). The assay is described as follows: Affinity Biochemical interaction: (enzymatic assay (fluorogenic substrate cleavage)) EUB0002173aAD CASP10. Further details: mode of action Inhibitor, recommended concentration 1 uM. In kind it is functional.
Assay [24] has as its target T2, Caspase-8. The assay is described as follows: Affinity Biochemical interaction: (enzymatic assay (fluorogenic substrate cleavage)) EUB0002173aAD CASP8. Type of assay: functional. Further details: mode of action Inhibitor, recommended concentration 1 uM.
Assay [25] concerns the target T5, Caspase-7. Description: Affinity Biochemical interaction: (enzymatic assay (fluorogenic substrate cleavage)) EUB0002173aAD CASP7. In kind it is functional. Further details: mode of action Inhibitor, recommended concentration 1 uM.

Non-standard residues stand in square brackets, D forms with d. Residues, ends and D or L forms follow the SMILES beside them. *: point of attachment. Lys(Me,2-norbornyl) = CN(CCCC[C@H](N)C(=O)O)C1CC2CCC1C2; Benzoyl(4-tBu) = CC(C)(C)c1ccc(C(=O)*)cc1; Boc = CC(C)(C)OC(=O)*

T4 sequence (P29466 120-297 limits assumed): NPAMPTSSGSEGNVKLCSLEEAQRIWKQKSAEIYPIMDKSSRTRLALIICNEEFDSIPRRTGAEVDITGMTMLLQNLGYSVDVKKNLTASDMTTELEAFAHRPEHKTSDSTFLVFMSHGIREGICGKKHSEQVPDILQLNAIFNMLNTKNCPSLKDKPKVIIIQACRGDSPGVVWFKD
T4 sequence (P29466 317-404 limits assumed): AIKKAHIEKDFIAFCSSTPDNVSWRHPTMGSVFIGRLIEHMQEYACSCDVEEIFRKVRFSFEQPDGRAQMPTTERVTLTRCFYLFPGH
T5 sequence (P55210 24-198 limits assumed): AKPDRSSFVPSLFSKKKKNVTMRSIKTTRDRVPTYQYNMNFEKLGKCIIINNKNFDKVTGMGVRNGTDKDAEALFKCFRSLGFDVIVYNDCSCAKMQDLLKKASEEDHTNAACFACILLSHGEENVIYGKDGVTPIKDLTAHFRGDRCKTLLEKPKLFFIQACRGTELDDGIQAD
T5 sequence (P55210 207-303 limits assumed): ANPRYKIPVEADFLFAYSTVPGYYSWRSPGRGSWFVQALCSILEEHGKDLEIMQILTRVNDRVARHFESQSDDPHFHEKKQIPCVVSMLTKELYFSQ
T1 sequence (Q92800 whole entry): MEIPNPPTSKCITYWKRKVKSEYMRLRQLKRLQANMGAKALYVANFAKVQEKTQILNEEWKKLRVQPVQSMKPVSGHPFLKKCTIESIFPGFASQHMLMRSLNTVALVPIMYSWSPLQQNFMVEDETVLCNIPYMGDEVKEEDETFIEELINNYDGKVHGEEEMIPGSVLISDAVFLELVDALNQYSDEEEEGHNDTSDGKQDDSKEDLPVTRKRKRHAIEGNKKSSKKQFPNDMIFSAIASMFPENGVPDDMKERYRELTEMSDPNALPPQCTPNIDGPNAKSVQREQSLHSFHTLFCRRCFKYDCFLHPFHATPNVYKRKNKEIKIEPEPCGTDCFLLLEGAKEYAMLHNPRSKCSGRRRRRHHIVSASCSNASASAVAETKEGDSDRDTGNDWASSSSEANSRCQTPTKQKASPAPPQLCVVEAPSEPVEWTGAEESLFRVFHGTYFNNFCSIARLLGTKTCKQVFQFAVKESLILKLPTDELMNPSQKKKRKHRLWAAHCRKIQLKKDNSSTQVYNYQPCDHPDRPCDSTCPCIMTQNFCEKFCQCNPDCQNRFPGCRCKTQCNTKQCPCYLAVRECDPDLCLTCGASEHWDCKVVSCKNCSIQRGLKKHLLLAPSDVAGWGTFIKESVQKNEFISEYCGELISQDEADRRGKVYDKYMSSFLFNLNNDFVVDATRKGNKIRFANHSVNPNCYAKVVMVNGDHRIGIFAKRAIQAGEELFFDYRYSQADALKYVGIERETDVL
Sequence of Protein arginine N-methyltransferase 8 (Q9NR22 whole entry): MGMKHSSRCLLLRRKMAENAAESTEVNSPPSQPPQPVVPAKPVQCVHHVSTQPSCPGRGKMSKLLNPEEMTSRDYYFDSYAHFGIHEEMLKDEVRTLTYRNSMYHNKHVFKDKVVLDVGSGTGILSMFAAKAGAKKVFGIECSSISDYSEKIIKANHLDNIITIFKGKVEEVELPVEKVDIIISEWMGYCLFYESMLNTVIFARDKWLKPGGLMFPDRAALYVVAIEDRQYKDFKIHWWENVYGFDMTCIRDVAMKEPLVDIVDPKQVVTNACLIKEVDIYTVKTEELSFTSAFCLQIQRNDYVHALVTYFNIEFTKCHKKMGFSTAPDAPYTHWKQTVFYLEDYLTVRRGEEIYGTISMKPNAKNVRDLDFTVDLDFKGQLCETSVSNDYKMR
Sequence of Histone-arginine methyltransferase CARM1 (Q86X55 whole entry): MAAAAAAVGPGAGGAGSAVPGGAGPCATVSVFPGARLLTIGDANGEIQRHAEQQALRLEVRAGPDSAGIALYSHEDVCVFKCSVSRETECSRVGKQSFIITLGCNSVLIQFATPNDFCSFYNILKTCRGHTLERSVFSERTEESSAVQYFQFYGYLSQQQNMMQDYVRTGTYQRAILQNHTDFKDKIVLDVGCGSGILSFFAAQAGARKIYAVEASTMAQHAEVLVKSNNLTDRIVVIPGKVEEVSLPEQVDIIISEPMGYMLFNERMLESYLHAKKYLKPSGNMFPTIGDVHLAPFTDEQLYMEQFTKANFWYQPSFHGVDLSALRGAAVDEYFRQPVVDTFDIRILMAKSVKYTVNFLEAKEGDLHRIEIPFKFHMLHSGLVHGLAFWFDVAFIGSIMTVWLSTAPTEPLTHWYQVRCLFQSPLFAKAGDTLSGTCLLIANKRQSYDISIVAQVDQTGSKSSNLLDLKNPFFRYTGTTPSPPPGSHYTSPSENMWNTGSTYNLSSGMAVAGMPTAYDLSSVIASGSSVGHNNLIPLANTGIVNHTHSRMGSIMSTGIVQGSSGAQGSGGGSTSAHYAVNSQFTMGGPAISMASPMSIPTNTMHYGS
Sequence of Caspase-10 (Q92851 220-415 limits assumed): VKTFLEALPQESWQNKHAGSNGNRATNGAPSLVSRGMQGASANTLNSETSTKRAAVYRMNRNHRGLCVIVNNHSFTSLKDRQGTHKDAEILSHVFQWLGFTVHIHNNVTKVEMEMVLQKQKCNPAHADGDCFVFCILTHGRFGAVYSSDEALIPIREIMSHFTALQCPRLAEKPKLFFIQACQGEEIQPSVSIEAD
Sequence of Caspase-10 (Q92851 416-521 limits assumed): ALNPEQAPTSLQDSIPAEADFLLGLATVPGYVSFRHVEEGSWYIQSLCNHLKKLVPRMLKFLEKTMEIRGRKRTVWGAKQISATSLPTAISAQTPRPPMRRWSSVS

One may read the Ki as the dissociation constant of the complex between target and ligand, obtained from inhibition or displacement. A lower Ki goes with a stronger hold on the target. By IC50 is commonly meant the concentration at which inhibition is half-maximal. A lower IC50 goes with higher potency. Consider `CCN(c1cc(C#CCN2CCOCC2)cc(C(=O)NCc2c(C)cc(C)[nH]c2=O)c1C)[C@H]1CC[C@H](N(C)CCOC)CC1`, for which, in assay [1], the inhibition constant Ki was determined as 45 nM. For the same compound, the IC50 in assay [2] amounted to 103 nM.
In assay [3], `O=C(Nc1ccccc1C(=O)O)c1cc(S(=O)(=O)c2ccccc2)ccc1Cl` showed an IC50 of 11 nM and a Ki of 5.02 nM.
With `CC[C@H](C)[C@H](NC(C)=O)C(=O)N[C@@H](CCC(=O)O)C(=O)N[C@H](C(=O)N[C@H](C=O)CC(=O)O)[C@@H](C)O` (Ac-IETD-aldehyde), in [4], inhibition was half-maximal at 5 nM (IC50).
`CC(C)[C@H](NC(=O)[C@H](CCC(=O)O)NC(=O)[C@H](C)NC(=O)OC(C)(C)C)C(=O)N[C@H](C=O)CC(=O)O` (Boc-AEVD-aldehyde): the inhibition constant Ki was 52 nM in [5]; 48 nM in assay [6]; 42 nM in assay [7]; < 12 nM in assay [8]; 1.6 nM in [9].
Consider `CCOCC1(COCC)CCC(c2n[nH]cc2CN(C)CCNC)CC1`, for which the figures for the half-inhibitory concentration (IC50) in [10], in assay [11] and in assay [12] were 38 nM, 4.7 nM and 3.9 nM, respectively. Moreover, the Ki stood at 19 nM in assay [10], 2.4 nM in assay [11] and 2 nM in [12].
For the compound `CC(=O)N[C@H](C(=O)N[C@@H](CC(=O)O)C(=O)N[C@H](C(=O)N[C@@H](C)C(=O)N[C@H](C=O)CC(=O)O)C(C)C)C(C)C` (Ac-VDVAD-aldehyde), the Ki in assay [13] was found to be 3.5 nM; in assay [14], 7.5 nM; in [15], 1 nM.
As to `CC(=O)N[C@@H](CC(C)C)C(=O)N[C@@H](CCC(=O)O)C(=O)N[C@@H](Cc1cnc[nH]1)C(=O)N[C@H](C=O)CC(=O)O` (Ac-LEHD-aldehyde), the 50% inhibitory concentration (IC50) turned out to be 3.82 nM in assay [16] and 15 nM in assay [17].
For orientation: Kd means a measure of binding affinity in units of concentration. Consider `COC(=O)[C@H](CO)NC(=O)[C@H](CCCCN(C)C1CC2CCC1C2)NC(=O)[C@H](CC(C)C)NC(=O)[C@H](C)NC(=O)[C@H](Cc1ccccc1)NC(=O)c1ccc(C(C)(C)C)cc1` (some centres undefined) ({Benzoyl(4-tBu)}-FAL[Lys(Me,2-norbornyl)]S-OMe), for which the dissociation constant Kd in assay [18] turned out to be 59 nM; in [20], 53.8 nM. Moreover, the 50% inhibitory concentration (IC50) in [19] is 20 nM.
As for `CC(=O)N[C@@H](CC(C)C)C(=O)N[C@@H](CCC(=O)O)C(=O)N[C@H](C(=O)N[C@H](C=O)CC(=O)O)C(C)C` (Ac-LEVD-aldehyde), the IC50 in [21] stood at 84 nM.
The term inhibition denotes the share of the control response that was lost under treatment. Read a low inhibition as a weak effect. In assay [22], `CC(C)(C)OC(=O)NCCCCCN(CCc1ccccc1)C(=O)n1cc(-c2ccc(OC(F)(F)F)cc2)nn1` showed an inhibition of 73%.
Consider `CC(=O)N[C@@H](CC(=O)O)C(=O)N[C@@H](CCC(=O)O)C(=O)N[C@H](C(=O)N[C@H](C=O)CC(=O)O)C(C)C`, for which the values for the inhibitory constant (Ki) in assay [23], in assay [24] and in [25] were 12 nM, 0.92 nM and 1.6 nM, respectively.

These data come from ChEMBL document CHEMBL5723035, “Affinity Biochemical Literature for EUbOPEN Chemogenomic Library” (2024).
